From patent US11019820B2 (BASF SE, priority 2013, dated 2021)

Key:
Type in all cases: in vivo
[1] = system: Myzus persicae; experiment: Green peach aphid (Myzus persicae) systemic artificial diet test; settings: 72 h, read-out: mortality in comparison with untreated controls (aphid mortality)
From the text: For evaluating control of green peach aphid (Myzus persicae) through systemic means the test unit consisted of 96-well-microtiter plates containing liquid artificial diet under an artificial membrane.
The compounds were formulated using a solution containing 75% v/v water and 25% v/v DMSO. Different concentrations of formulated compounds were pipetted into the aphid diet, using a custom built pipetter, at two replications.
After application, 5-8 adult aphids were placed on the artificial membrane inside the microtiter plate wells. The aphids were then allowed to suck on the treated aphid diet and incubated at about 23±1° C. and about 50±5% relative humidity for 3 days. Aphid mortality and fecundity was then visually assessed.

[2] = system: Tetranychus spp; experiment: Spider mite (Tetranychus spp) potted cotton plant spray test; settings: sprayed potted cotton plants, 72 hours after treatment, read-out: mortality in comparison with untreated controls
Procedure: The active compound is dissolved at the desired concentration in a mixture of 1:1 (vol:vol) distilled water:acetone. The test solution is prepared at the day of use. Potted cotton plants at two weeks of age were cleaned, air dried and inoculated with approximately 50 mites of various stages. The potted plants are sprayed after the pest population has been recorded. Percent mortality is recorded 72 hours after treatment.

[3] = system: Megoura viciae; experiment: Vetch aphid (Megoura viciae) leaf disk test; settings: foliar, 120 h, read-out: mortality in comparison with untreated controls (aphid mortality)
Procedure: For evaluating control of vetch aphid (Megoura viciae) through contact or systemic means the test unit consisted of 24-well-microtiter plates containing broad bean leaf disks.
The compounds were formulated using a solution containing 75% v/v water and 25% v/v DMSO. Different concentrations of formulated compounds were sprayed onto the leaf disks at 2.5 μl, using a custom built micro atomizer, at two replications.
After application, the leaf disks were air-dried and 5-8 adult aphids placed on the leaf disks inside the microtiter plate wells. The aphids were then allowed to suck on the treated leaf disks and incubated at about 23±1° C. and about 50±5% relative humidity for 5 days. Aphid mortality and fecundity was then visually assessed.

[4] = system: Dichromothrips corbetti; experiment: Orchid thrips (Dichromothrips corbetti) floral-immersion test; settings: 72 h, read-out: mortality in comparison with untreated controls
Procedure: Dichromothrips corbetti adults used for bioassay were obtained from a colony maintained continuously under laboratory conditions. For testing purposes, the test compound is diluted in a 1:1 mixture of acetone:water (vol:vol), plus 0.01% vol/vol Alkannuls® EL 620 surfactant.
Thrips potency of each compound was evaluated by using a floral-immersion technique. Plastic petri dishes were used as test arenas. All petals of individual, intact orchid flowers were dipped into treatment solution and allowed to dry. Treated flowers were placed into individual petri dishes along with about 20 adult thrips. The petri dishes were then covered with lids. All test arenas were held under continuous light and a temperature of about 28° C. for duration of the assay. After 3 days, the numbers of live thrips were counted on each flower, and along inner walls of each petri dish. The percent mortality was recorded 72 hours after treatment.

[5] = system: Nephotettix virescens; experiment: Rice green leafhopper (Nephotettix virescens) rice seedling spray test; settings: 72 h, read-out: mortality in comparison with untreated controls
Procedure: (§1) Rice seedlings were cleaned and washed 24 hours before spraying. The active compounds were formulated in 50:50 acetone:water (vol:vol), and 0.1% vol/vol surfactant (EL 620) was added. Potted rice seedlings were sprayed with 5 ml test solution, air dried, placed in cages and inoculated with 10 adults. Treated rice plants were kept at about 28-29° C. and relative humidity of about 50-60%. Percent mortality was recorded after 72 hours.

[6] = system: Nilaparvata lugens; experiment: Rice brown plant hopper (Nilaparvata lugens) rice seedling spray test; settings: 72 h, read-out: mortality in comparison with untreated controls
Procedure: as §1, with “(vol:vol)” for “(vol:vol),”

CC[n+]1c([O-])c(-c2ccccc2)c(=O)n2c1CCCC2c1ccc(Cl)nc1 (stereo not shown) [Compound C-9]
> 75%: mortality at 2500 ppm [1] | mortality at 500 ppm [2] | mortality at 2500 ppm [3]

Cn1c2[n+](c([O-])c(-c3ccccc3)c1=O)[C@@H](c1cnc(Cl)s1)CC2 [Compound C-42]
> 75%: mortality at 500 ppm [4] | mortality at 500 ppm [5] | mortality at 500 ppm [6] | mortality at 500 ppm [2]
